In the CheMixHub viscosity set:
± gives the uncertainty stated by the source.

Assay: xn = mol fraction of the nth substance listed
Details: 101 kPa

CCOCCO + OCCOCCO
viscosity (293.15 K, x1 = 0.0582): 33.17 ± 0.16 mPa·s | viscosity (293.15 K, x1 = 0.0952): 30.25 ± 0.15 mPa·s | viscosity (293.15 K, x1 = 0.2037): 23.28 ± 0.12 mPa·s | viscosity (293.15 K, x1 = 0.3098): 18.21 ± 0.091 mPa·s | viscosity (293.15 K, x1 = 0.4062): 14.48 ± 0.074 mPa·s | viscosity (293.15 K, x1 = 0.4503): 13.03 ± 0.067 mPa·s | viscosity (293.15 K, x1 = 0.5003): 11.5 ± 0.06 mPa·s | viscosity (293.15 K, x1 = 0.5413): 10.37 ± 0.055 mPa·s | viscosity (293.15 K, x1 = 0.5988): 8.935 ± 0.048 mPa·s | viscosity (293.15 K, x1 = 0.6952): 6.844 ± 0.038 mPa·s | viscosity (293.15 K, x1 = 0.8031): 4.921 ± 0.03 mPa·s | viscosity (293.15 K, x1 = 0.9002): 3.465 ± 0.021 mPa·s | viscosity (293.15 K, x1 = 0.9508): 2.759 ± 0.017 mPa·s | viscosity (298.15 K, x1 = 0.0511): 26.45 ± 0.13 mPa·s | viscosity (298.15 K, x1 = 0.1023): 23.41 ± 0.12 mPa·s | viscosity (298.15 K, x1 = 0.2003): 18.57 ± 0.093 mPa·s | viscosity (298.15 K, x1 = 0.2998): 14.7 ± 0.075 mPa·s | viscosity (298.15 K, x1 = 0.3988): 11.61 ± 0.061 mPa·s | viscosity (298.15 K, x1 = 0.4514): 10.25 ± 0.054 mPa·s | viscosity (298.15 K, x1 = 0.4998): 9.068 ± 0.049 mPa·s | viscosity (298.15 K, x1 = 0.5476): 8.079 ± 0.044 mPa·s | viscosity (298.15 K, x1 = 0.5996): 7.096 ± 0.04 mPa·s | viscosity (298.15 K, x1 = 0.6983): 5.447 ± 0.032 mPa·s | viscosity (298.15 K, x1 = 0.7991): 4.05 ± 0.025 mPa·s | viscosity (298.15 K, x1 = 0.882): 3.061 ± 0.019 mPa·s | viscosity (298.15 K, x1 = 0.95): 2.337 ± 0.015 mPa·s | viscosity (303.15 K, x1 = 0.0643): 18.69 ± 0.094 mPa·s | viscosity (303.15 K, x1 = 0.0932): 17.45 ± 0.088 mPa·s | viscosity (303.15 K, x1 = 0.2072): 13.23 ± 0.068 mPa·s | viscosity (303.15 K, x1 = 0.3008): 10.56 ± 0.056 mPa·s | viscosity (303.15 K, x1 = 0.4001): 8.317 ± 0.046 mPa·s | viscosity (303.15 K, x1 = 0.4496): 7.372 ± 0.041 mPa·s | viscosity (303.15 K, x1 = 0.4939): 6.612 ± 0.038 mPa·s | viscosity (303.15 K, x1 = 0.5508): 5.751 ± 0.034 mPa·s | viscosity (303.15 K, x1 = 0.5913): 5.201 ± 0.031 mPa·s | viscosity (303.15 K, x1 = 0.701): 3.93 ± 0.024 mPa·s | viscosity (303.15 K, x1 = 0.7959): 3.051 ± 0.019 mPa·s | viscosity (303.15 K, x1 = 0.899): 2.267 ± 0.014 mPa·s | viscosity (303.15 K, x1 = 0.9218): 2.117 ± 0.013 mPa·s

CCOCCO + OCCOCCOCCO
viscosity (293.15 K, x1 = 0.0493): 36.7 ± 0.23 mPa·s | viscosity (293.15 K, x1 = 0.1039): 32.11 ± 0.2 mPa·s | viscosity (293.15 K, x1 = 0.1964): 25.21 ± 0.15 mPa·s | viscosity (293.15 K, x1 = 0.3004): 18.99 ± 0.12 mPa·s | viscosity (293.15 K, x1 = 0.3949): 14.53 ± 0.087 mPa·s | viscosity (293.15 K, x1 = 0.4468): 12.49 ± 0.074 mPa·s | viscosity (293.15 K, x1 = 0.5005): 10.66 ± 0.063 mPa·s | viscosity (293.15 K, x1 = 0.5512): 9.194 ± 0.055 mPa·s | viscosity (293.15 K, x1 = 0.6003): 7.883 ± 0.047 mPa·s | viscosity (293.15 K, x1 = 0.7017): 5.752 ± 0.035 mPa·s | viscosity (293.15 K, x1 = 0.7946): 4.246 ± 0.027 mPa·s | viscosity (293.15 K, x1 = 0.9032): 2.957 ± 0.018 mPa·s | viscosity (293.15 K, x1 = 0.941): 2.603 ± 0.016 mPa·s | viscosity (298.15 K, x1 = 0.0425): 31.4 ± 0.2 mPa·s | viscosity (298.15 K, x1 = 0.1132): 26.58 ± 0.17 mPa·s | viscosity (298.15 K, x1 = 0.198): 21.56 ± 0.13 mPa·s | viscosity (298.15 K, x1 = 0.2956): 16.85 ± 0.1 mPa·s | viscosity (298.15 K, x1 = 0.3992): 12.84 ± 0.077 mPa·s | viscosity (298.15 K, x1 = 0.4535): 11.09 ± 0.066 mPa·s | viscosity (298.15 K, x1 = 0.5008): 9.696 ± 0.058 mPa·s | viscosity (298.15 K, x1 = 0.5433): 8.635 ± 0.052 mPa·s | viscosity (298.15 K, x1 = 0.5935): 7.463 ± 0.045 mPa·s | viscosity (298.15 K, x1 = 0.69): 5.545 ± 0.034 mPa·s | viscosity (298.15 K, x1 = 0.8038): 3.871 ± 0.024 mPa·s | viscosity (298.15 K, x1 = 0.8966): 2.774 ± 0.017 mPa·s | viscosity (298.15 K, x1 = 0.95): 2.248 ± 0.014 mPa·s | viscosity (303.15 K, x1 = 0.0543): 26.39 ± 0.17 mPa·s | viscosity (303.15 K, x1 = 0.0954): 24.22 ± 0.15 mPa·s | viscosity (303.15 K, x1 = 0.2034): 19.01 ± 0.12 mPa·s | viscosity (303.15 K, x1 = 0.2991): 15.11 ± 0.092 mPa·s | viscosity (303.15 K, x1 = 0.4003): 11.78 ± 0.071 mPa·s | viscosity (303.15 K, x1 = 0.4492): 10.39 ± 0.063 mPa·s | viscosity (303.15 K, x1 = 0.5007): 9.084 ± 0.055 mPa·s | viscosity (303.15 K, x1 = 0.5429): 8.086 ± 0.049 mPa·s | viscosity (303.15 K, x1 = 0.5978): 6.967 ± 0.043 mPa·s | viscosity (303.15 K, x1 = 0.6987): 5.187 ± 0.033 mPa·s | viscosity (303.15 K, x1 = 0.8008): 3.732 ± 0.023 mPa·s | viscosity (303.15 K, x1 = 0.9005): 2.597 ± 0.016 mPa·s | viscosity (303.15 K, x1 = 0.95): 2.081 ± 0.013 mPa·s
